In test [1] the target is T1, human Focal Adhesion Kinase (FAK) (Homo sapiens, UniProt Q05397).
T1 construct: FAK (fall length human cDNA described by Andre et al); made in house; host or cells: insect cells (Sf21; printed 'Sf12'), baculovirus, pFastbac 1; cell lysate supernatant used as enzyme stock
The test is described as follows: FAK3 Kinase Inhibition Assay (in vitro enzyme ELISA). The test is classed as biochemical. The following applies: read-out: FAK inhibitory activity IC50. The text has this:
This assay determines the ability of a test compound to inhibit tyrosine kinase activity of human Focal Adhesion Kinase (FAK).
DNA encoding FAK is obtained by total gene synthesis (Edwards M, International Biotechnology Lab 5(3), 19-25, 1987) or by cloning. These are then expressed in a suitable expression system to obtain polypeptide with tyrosine kinase activity.
Active FAK protein has been previously expressed in a baculovirus system using a similar N-terminal 6-histidine tag (Protein Expression And Purification, 1996, 7: 12-18). The human FAK cDNA was cloned into the baculovirus transplacement vector, pFastbac 1 (Life Technologies), and the recombinant construct was co-transfected into insect cells (for example Spodoptera frugiperda 21(Sf21)) with viral DNA to prepare recombinant baculovirus (details of the methods for the assembly of recombinant DNA molecules and the preparation and use of recombinant baculovirus can be found in standard texts for example Sambrook et al, 1989, Molecular cloning—A Laboratory Manual, 2nd edition, Cold Spring Harbour Laboratory Press and O'Reilly et al, 1992, Baculovirus Expression Vectors—A Laboratory Manual, W.H. Freeman and Co, New York. Details specific to the use of the pFastbac (‘Bac to Bac’) system are provided in Anderson et al., 1995, FOCUS (Life Technologies Bulletin Magazine), 17, p53.) […]
Background: In an ELISA, binding on a coated surface is turned into a signal by an enzyme label.

For another test, the target named is T2, CDK4/Cyclin D1 (Homo sapiens, UniProt P11802).
T2 construct: made in house; host or cells: SF21 insect cells (Spodoptera frugiperda), baculovirus co-infection; vector pVL1393
T2 sequence (P11802 whole entry): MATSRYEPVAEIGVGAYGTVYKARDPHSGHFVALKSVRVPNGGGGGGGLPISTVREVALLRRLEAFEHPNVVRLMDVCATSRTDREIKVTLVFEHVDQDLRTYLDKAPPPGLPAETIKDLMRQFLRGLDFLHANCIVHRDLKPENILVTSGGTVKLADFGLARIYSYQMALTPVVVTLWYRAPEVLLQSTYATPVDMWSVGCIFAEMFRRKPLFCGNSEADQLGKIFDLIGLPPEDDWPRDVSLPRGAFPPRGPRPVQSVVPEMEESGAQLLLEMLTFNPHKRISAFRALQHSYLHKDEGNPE
T2 sequence (P24385 whole entry partner): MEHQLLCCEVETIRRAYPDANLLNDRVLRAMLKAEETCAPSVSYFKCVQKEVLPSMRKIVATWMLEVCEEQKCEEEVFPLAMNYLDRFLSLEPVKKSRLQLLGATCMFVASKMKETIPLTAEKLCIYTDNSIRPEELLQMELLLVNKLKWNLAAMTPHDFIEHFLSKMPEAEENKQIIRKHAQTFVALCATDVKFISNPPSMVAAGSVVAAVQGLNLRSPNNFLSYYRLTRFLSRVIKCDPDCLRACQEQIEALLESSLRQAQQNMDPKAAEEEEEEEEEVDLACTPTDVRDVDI
The test is described as follows: CDK4 Inhibition Assay (SPA, GST-Rb substrate). Type of test: biochemical. The following applies: in vitro kinase assay; read-out: CDK4 inhibitory activity IC50. The method, then: The compounds were tested in an in vitro kinase assay in 96 well format using Scintillation Proximity Assay (SPA—obtained from Amersham) for measuring incorporation of [γ-33-P]-Adenosine Triphosphate into a test substrate (GST-Retinoblastoma). In each well was placed the compound to be tested (diluted in DMSO and water to correct concentrations) and in control wells either p16 as an inhibitor control or DMSO as a positive control.
Approximately 0.5 μl of CDK4/Cyclin D1 partially-purified enzyme (amount dependent on enzyme activity) diluted in 25 μl incubation buffer was added to each well then 20 μl of GST-Rb/ATP/ATP33 mixture (containing 0.5 μg GST-Rb and 0.2 μM ATP and 0.14 μCi [γ-33-P]-Adenosine Triphosphate), and the resulting mixture shaken gently, then incubated at room temperature for 60 minutes. […]
The plates were sealed with Topseal-S plate sealers, left for two hours then spun at 2500 rpm, 1124×g., for 5 minutes. The plates were read on a Topcount for 30 seconds per well. […]
E. coli paste was resuspended in 10 ml/g of NETN buffer (50 mM Tris pH 7.5, 120 mM NaCl, 1 mM EDTA, 0.5% v/v NP-40, 1 mM PMSF, 1 ug/ml leupeptin, 1 ug/ml aprotinin and 1 ug/ml pepstatin) and sonicated for 2×45 seconds per 100 ml homogenate. […] The final product was analysed by Sodium Dodeca Sulfate (SDS) PAGE (Polyacrylamide gel) using 8-16% Tris-Glycine gels (Novex, San Diego, USA). […]

T1 sequence (Q05397 whole entry): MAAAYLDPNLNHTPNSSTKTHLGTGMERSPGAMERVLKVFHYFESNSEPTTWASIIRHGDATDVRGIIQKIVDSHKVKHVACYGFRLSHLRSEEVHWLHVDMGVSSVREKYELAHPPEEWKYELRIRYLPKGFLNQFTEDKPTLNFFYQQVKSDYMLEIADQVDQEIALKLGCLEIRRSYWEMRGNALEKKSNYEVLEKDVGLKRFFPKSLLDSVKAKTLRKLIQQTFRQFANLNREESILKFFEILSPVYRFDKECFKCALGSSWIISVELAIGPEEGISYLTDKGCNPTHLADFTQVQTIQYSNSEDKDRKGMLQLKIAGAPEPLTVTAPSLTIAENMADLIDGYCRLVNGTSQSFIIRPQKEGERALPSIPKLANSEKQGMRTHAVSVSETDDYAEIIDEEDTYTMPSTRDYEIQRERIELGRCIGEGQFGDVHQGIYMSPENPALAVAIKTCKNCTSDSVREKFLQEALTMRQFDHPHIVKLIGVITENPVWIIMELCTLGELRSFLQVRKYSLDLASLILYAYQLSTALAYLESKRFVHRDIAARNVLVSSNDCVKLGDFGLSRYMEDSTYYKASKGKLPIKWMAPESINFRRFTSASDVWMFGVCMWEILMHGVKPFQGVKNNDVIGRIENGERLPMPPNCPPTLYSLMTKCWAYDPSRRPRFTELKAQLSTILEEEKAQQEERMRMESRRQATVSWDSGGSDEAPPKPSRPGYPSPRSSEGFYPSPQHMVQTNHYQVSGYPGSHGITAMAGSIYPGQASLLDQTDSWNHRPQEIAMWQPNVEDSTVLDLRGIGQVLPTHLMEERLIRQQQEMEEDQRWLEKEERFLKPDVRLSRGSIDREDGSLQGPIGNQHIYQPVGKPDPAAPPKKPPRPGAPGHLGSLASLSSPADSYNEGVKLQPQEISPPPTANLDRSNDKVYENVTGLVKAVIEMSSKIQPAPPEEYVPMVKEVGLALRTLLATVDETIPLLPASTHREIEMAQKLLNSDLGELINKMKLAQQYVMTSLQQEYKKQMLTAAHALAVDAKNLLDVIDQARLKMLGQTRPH

As usually defined, the IC50 is the concentration needed to halve the response being measured. Regarding `O=C(c1ccc(Nc2ncc(Br)c(Nc3ccccc3)n2)cc1)N1CCC(N2CCCC2)CC1` [Example 52], the IC50 in test [1] was 814 nM.

For `CCCCN(CCCC)CCCNC(=O)c1ccc(Nc2ncc(Br)c(Nc3ccccc3)n2)cc1` [Example 47], the IC50 in test [1] came to 97 nM.

With `O=C(NCCN1CCCCC1)c1ccc(Nc2ncc(Br)c(Nc3ccccc3)n2)cc1` [Example 45], the IC50 on CDK4/Cyclin D1 turned out to be 235 nM.

The values above are taken from US6649608B2, “2,4-di(hetero-)arylamino (oxy)-5-substituted pyrimidines as antineoplastic agents” (AstraZeneca AB, priority 2000, dated 2003).
